The results in this text go back to US6436921B1, “Carbapenem derivatives and a preparation method thereof” (Korea Institute of Science and Technology, priority 1997, dated 2002).

For data set [1], the target named is DHP-I (renal dehydropeptidase-I) (Homo sapiens, UniProt P16444). Description: in vitro.
The next data set has as its system Escherichia coli 078. Briefly: PD50 test using mice. Type of data set: in vivo. Also noted: PD50: unit not given beside the values. The source says: (§1) This means that ⅓ of the amount of the compound 10 has the same effect as meropenem.
(§2) Streptococcus pyrogenes A 77 and Escherichia coli 078 were selected as gram-positive and gram-negative strains, respectively.

For data set [2], the system named is Streptococcus pyrogenes A 77. Briefly: PD50 test using mice. Type of data set: in vivo. Also noted: PD50: unit not given beside the values.
From the text: as §1, §2

A short description of data set [3]: Bioavailability test, subcutaneous injection to mice. Type of data set: in vivo.
For another data set, the target named is renal enzyme (DHP-I) (Homo sapiens, UniProt P16444). Conditions: FIG. 1.
Sequence of renal enzyme (DHP-I) (P16444 17-385): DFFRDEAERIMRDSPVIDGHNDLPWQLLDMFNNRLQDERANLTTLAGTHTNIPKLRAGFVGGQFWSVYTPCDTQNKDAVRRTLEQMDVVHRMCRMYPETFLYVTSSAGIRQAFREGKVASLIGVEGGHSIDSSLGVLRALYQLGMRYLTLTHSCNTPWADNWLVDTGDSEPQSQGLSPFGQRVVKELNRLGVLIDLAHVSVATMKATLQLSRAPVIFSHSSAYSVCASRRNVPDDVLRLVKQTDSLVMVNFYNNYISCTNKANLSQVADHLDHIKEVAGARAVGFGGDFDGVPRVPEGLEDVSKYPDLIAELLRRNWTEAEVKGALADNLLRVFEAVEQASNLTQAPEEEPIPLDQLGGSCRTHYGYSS

Sequence of DHP-I (renal dehydropeptidase-I) (P16444 17-385): as above

For the compound `C[C@@H](O)[C@H]1C(=O)N2C(C(=O)O)=C(S[C@@H]3CN[C@H](C(=O)NCCS(N)(=O)=O)C3)[C@H](C)[C@H]12` [Compound 10], the half-life in data set [1] was over 300 min; in data set [3] (mouse, in vivo, sc) it was 19.2 ± 2.4 min. For the same compound, the PD50 in the data set on Escherichia coli 078 (Escherichia coli 078) is given as 0.47; in data set [2] (Streptococcus pyrogenes A 77), 2.31. Moreover, the “times more efficient than meropenem (PD50 test)” value in the data set on Escherichia coli 078 (gram-negative strain, versus meropenem) was determined as 3 times; in data set [2] (gram-positive strain, versus meropenem) it was 3 times. The compound further had an AUC in data set [3] (mouse, in vivo, sc, AUC 0-3 hr) of 11900 ± 1130 ng·h/mL. In data set [3] (mouse, in vivo, sc, read-out: Cmax), the Cmax came to 16000 ± 960 ng/mL. The Tmax in data set [3] (mouse, in vivo, sc, read-out: Tmax) was at most 19.8 min. Besides, the “times as efficient as meropenem (bioavailability, Table 4)” value in data set [3] (versus meropenem) was “ca. 3 times”. Moreover, on renal enzyme (DHP-I), the “stability against DHP-I (in words)” value was “a little more stable than meropenem against DHP-I and markedly more stable than imipenem”.
